Assay results taken from US6239171A, “Tocotrienols and tocotrienol-like compounds and methods for their use” (Lipogenics, Inc., priority 1998, dated 2001).

Assays:
[1] = system: hypercholesterolemic swine; assay: Serum cholesterol, apolipoproteins, triglycerides, glucose, insulin and glucagon in hypercholesterolemic swine; format: in vivo
Protocol: All assays conducted on chicken or swine serum were done following the protocols described in A. A. Qureshi et al., "Lowering Of Serum Cholesterol In Hypercholesterolemic Humans By Tocotrienols" (Palmvitee), Am. […] Plasma insulin, glucagon and TNF levels were measured using radioinnumoassay kits from Ventrex Laboratories, Inc. (Portland, Me.), ICN Biomedicals, Inc. (Costa Mesa, Calif.) and Genzyme Corp. (Cambridge, Mass.), respectively.
We next measured the effects of various tocotrienols from rice bran on HMG-CoA reductase and cholesterol 7α-hydroxylase in hypercholesterolemic swine. Since pigs are very similar to humans in their cholesterol metabolism, they provide a useful model from which to study hypercholesterolemia and related diseases. […] As a result, the pigs develop complicated atherosclerotic plaques that closely resemble advanced atherosclerotic lesions found in humans.
Each group of three 5-month old swine was administered either a control diet or a control diet supplemented with 50 ppm of TRF or 50 ppm of an individual tocotrienol. […] After a 12 hour fast, serum and plasma samples were taken a 0 hrs, 21 days and 42 days from the start of the feeding period. After taking serum and plasma samples from the pigs at the end of the 42 day period, all of the swine were fasted for a total of 40 hours, followed by a 48 hour refeeding period. One swine from each group was sacrificed at that time and the liver, intestine, lung, heart, loin muscle, adipose tissue and ham muscle were removed.
The experimental conditions were the same, except that the two remaining swine in each group were transferred to the unsupplemented control diet following the 42 day feeding period. After an additional 70 days, serum and plasma samples were collected from these swine after a 12 hour fast for testing.

[2] = system: chickens; assay: Serum cholesterol, apolipoproteins, triglycerides and glucose in chickens fed supplemented diets; format: in vivo, chicken; settings: 4 weeks
Source text: All assays conducted on chicken or swine serum were done following the protocols described in A. A. Qureshi et al., "Lowering Of Serum Cholesterol In Hypercholesterolemic Humans By Tocotrienols" (Palmvitee), Am. J. Clin. Nutr., 53, pp. 1021S-26S (1991). All enzymatic assays were done following the protocols described in A. A. Qureshi et al., "Effects of Cereals and Culture Filtrate of Trichoderma viride on Lipid Metabolism of Swine", Lipids, 17, pp. 924 (1982). Plasma insulin, glucagon and TNF levels were measured using radioinnumoassay kits from Ventrex Laboratories, Inc. (Portland, Me.), ICN Biomedicals, Inc. (Costa Mesa, Calif.) and Genzyme Corp. (Cambridge, Mass.), respectively. […]
Each group of 6 chickens (6-week old female while leghorn) was administered the chick mash diet described in Example 5, supplemented with one of three different amounts of waxes (sterols), 50 ppm of TRF (prepared as in Example 2) or 5% equivalent of the methanol insoluble fraction Louisiana rice bran oil. […] The birds were fasted for a period of 14 hours prior to sacrifice (at 0800 hours). […]

[3] = 70 days on control diet after 42 days at 50 ppm

SMILES: CC(C)=CCC/C(C)=C/CC/C(C)=C/CCC1(C)CCc2cc(O)ccc2O1 (stereo not drawn) [P21, 3,4-dihydro-2-methyl-2-(4,8,12-trimethyltrideca-3' (E),7'(E),11'-trienyl)-2H-1-benzopyran-6-ol]
- HDL-CHOLESTEROL CONCENTRATION IN SERUM [1, 3]: 31.15 mg/100 ml
- HDL-CHOLESTEROL, Percentage of Control Activity [1, 3]: 103.50%
- HDL-CHOLESTEROL, percentage of baseline value [1, 3]: 135.72%
- HDL:LDL CHOLESTEROL, Percentage of Control Activity [1, 3]: 83.83%
- LDL-CHOLESTEROL CONCENTRATION IN SERUM [1, 3]: 227.82 mg/100 ml
- LDL-CHOLESTEROL, Percentage of Control Activity [1, 3]: 88.02%
- LDL-CHOLESTEROL, percentage of baseline value [1, 3]: 125.11%
- TOTAL CHOLESTEROL CONCENTRATION IN SERUM [1, 3]: 276.23 mg/100 ml
- TOTAL CHOLESTEROL, Percentage of Control Activity [1, 3]: 76.20%
- TOTAL CHOLESTEROL, percentage of baseline value [1, 3]: 125.39%
- Apo A1, percentage of control ([1]; control diet + 50 ppm, 6 weeks): 104.01%
- Apo A1 concentration in serum ([1]; control diet + 50 ppm, 6 weeks): 26.72 ± 1.14 mg/100 ml
- Apo B concentration in serum ([1]; control diet + 50 ppm, 6 weeks): 111.78 ± 1.80 mg/100 ml
- Apo B, percentage of control ([1]; control diet + 50 ppm, 6 weeks): 75.64%
- Triglycerides concentration in serum ([1]; control diet + 50 ppm, 6 weeks): 64.44 mg/100 ml
- Triglycerides, percentage of control ([1]; control diet + 50 ppm, 6 weeks): 84.17%
- HDL-CHOLESTEROL CONCENTRATION IN SERUM ([1]; control diet + 50 ppm, 21 days): 26.23 mg/100 ml
- HDL-CHOLESTEROL, percentage of baseline value ([1]; control diet + 50 ppm, 21 days): 114.29%
- HDL:LDL CHOLESTEROL, percentage of baseline value ([1]; control diet + 50 ppm, 21 days): 93.32%
- LDL-CHOLESTEROL CONCENTRATION IN SERUM ([1]; control diet + 50 ppm, 21 days): 194.17 mg/100 ml
- LDL-CHOLESTEROL, percentage of baseline value ([1]; control diet + 50 ppm, 21 days): 106.63%
- TOTAL CHOLESTEROL CONCENTRATION IN SERUM ([1]; control diet + 50 ppm, 21 days): 236.40 mg/100 ml
- TOTAL CHOLESTEROL, percentage of baseline value ([1]; control diet + 50 ppm, 21 days): 107.20%
- Glucagon ([1]; control diet + 50 ppm, 42 days): 278.36 pg/mL
- Glucagon, percentage of control ([1]; control diet + 50 ppm, 42 days): 84.25%
- Glucose ([1]; control diet + 50 ppm, 42 days): 72.63 mg/100 ml
- Glucose, percentage of control ([1]; control diet + 50 ppm, 42 days): 75.66%
- HDL-CHOLESTEROL CONCENTRATION IN SERUM ([1]; control diet + 50 ppm, 42 days): 30.74 mg/100 ml
- HDL-CHOLESTEROL, Percentage of Control Activity ([1]; control diet + 50 ppm, 42 days): 113.90%
- HDL-CHOLESTEROL, percentage of baseline value ([1]; control diet + 50 ppm, 42 days): 133.94%
- HDL:LDL CHOLESTEROL, Percentage of Control Activity ([1]; control diet + 50 ppm, 42 days): 57.82%
- HDL:LDL CHOLESTEROL, percentage of baseline value ([1]; control diet + 50 ppm, 42 days): 81.59%
- Insulin ([1]; control diet + 50 ppm, 42 days): 21.4 µU/mL
- Insulin, percentage of control ([1]; control diet + 50 ppm, 42 days): 104.63%
- LDL-CHOLESTEROL CONCENTRATION IN SERUM ([1]; control diet + 50 ppm, 42 days): 198.76 mg/100 ml
- LDL-CHOLESTEROL, Percentage of Control Activity ([1]; control diet + 50 ppm, 42 days): 66.53%
- LDL-CHOLESTEROL, percentage of baseline value ([1]; control diet + 50 ppm, 42 days): 109.15%
- TOTAL CHOLESTEROL CONCENTRATION IN SERUM ([1]; control diet + 50 ppm, 42 days): 238.17 mg/100 ml
- TOTAL CHOLESTEROL, Percentage of Control Activity ([1]; control diet + 50 ppm, 42 days): 68.90%
- TOTAL CHOLESTEROL, percentage of baseline value ([1]; control diet + 50 ppm, 42 days): 108.20%
- increase in the HDL-/LDL-cholesterol ratio ([2]; 50 ppm in diet): > 100%
- rank as cholesterol inhibitor among compounds tested (in words) ([2]; 50 ppm in diet): most potent cholesterol inhibitors
- APO A1, percentage of control ([2]; control diet + 50 ppm): 98.79%
- APO A1 in serum ([2]; control diet + 50 ppm): 138.4 mg/100 ml
- APO B in serum ([2]; control diet + 50 ppm): 25.40 mg/100 ml
- APO B, percentage of control ([2]; control diet + 50 ppm): 76.74%
- DL-Cholesterol/Total Cholesterol ([2]; control diet + 50 ppm): 0.74
- DL-Cholesterol/Total Cholesterol, percentage of control ([2]; control diet + 50 ppm): 126.50%
- Glucose in serum ([2]; control diet + 50 ppm): 198.80 mg/100 ml
- Glucose, percentage of control ([2]; control diet + 50 ppm): 88.63%
- HDL-Cholesterol in serum ([2]; control diet + 50 ppm): 68.88 ± 1.52 mg/dL
- HDL-Cholesterol, percentage of control ([2]; control diet + 50 ppm): 82.33%
- HDL-Cholesterol/LDL-Cholesterol ([2]; control diet + 50 ppm): 3.11
- HDL-Cholesterol/LDL-Cholesterol, percentage of control ([2]; control diet + 50 ppm): 204.60%
- LDL-Cholesterol in serum ([2]; control diet + 50 ppm): 22.16 ± 0.57 mg/dL
- LDL-Cholesterol, percentage of control ([2]; control diet + 50 ppm): 40.25%
- Total Cholesterol in serum ([2]; control diet + 50 ppm): 92.91 ± 1.27 mg/dL
- Total Cholesterol, percentage of control ([2]; control diet + 50 ppm): 65.08%
- Triglycerides in serum ([2]; control diet + 50 ppm): 56.22 mg/100 ml
- Triglycerides, percentage of control ([2]; control diet + 50 ppm): 75.94%
